Activity calls are given as the source filed them. Some results are limits rather than exact numbers.

For test [1], the target named is T1, Short transient receptor potential channel 4 (Mus musculus, UniProt Q9QUQ5).
T1 sequence (Q9QUQ5 whole entry): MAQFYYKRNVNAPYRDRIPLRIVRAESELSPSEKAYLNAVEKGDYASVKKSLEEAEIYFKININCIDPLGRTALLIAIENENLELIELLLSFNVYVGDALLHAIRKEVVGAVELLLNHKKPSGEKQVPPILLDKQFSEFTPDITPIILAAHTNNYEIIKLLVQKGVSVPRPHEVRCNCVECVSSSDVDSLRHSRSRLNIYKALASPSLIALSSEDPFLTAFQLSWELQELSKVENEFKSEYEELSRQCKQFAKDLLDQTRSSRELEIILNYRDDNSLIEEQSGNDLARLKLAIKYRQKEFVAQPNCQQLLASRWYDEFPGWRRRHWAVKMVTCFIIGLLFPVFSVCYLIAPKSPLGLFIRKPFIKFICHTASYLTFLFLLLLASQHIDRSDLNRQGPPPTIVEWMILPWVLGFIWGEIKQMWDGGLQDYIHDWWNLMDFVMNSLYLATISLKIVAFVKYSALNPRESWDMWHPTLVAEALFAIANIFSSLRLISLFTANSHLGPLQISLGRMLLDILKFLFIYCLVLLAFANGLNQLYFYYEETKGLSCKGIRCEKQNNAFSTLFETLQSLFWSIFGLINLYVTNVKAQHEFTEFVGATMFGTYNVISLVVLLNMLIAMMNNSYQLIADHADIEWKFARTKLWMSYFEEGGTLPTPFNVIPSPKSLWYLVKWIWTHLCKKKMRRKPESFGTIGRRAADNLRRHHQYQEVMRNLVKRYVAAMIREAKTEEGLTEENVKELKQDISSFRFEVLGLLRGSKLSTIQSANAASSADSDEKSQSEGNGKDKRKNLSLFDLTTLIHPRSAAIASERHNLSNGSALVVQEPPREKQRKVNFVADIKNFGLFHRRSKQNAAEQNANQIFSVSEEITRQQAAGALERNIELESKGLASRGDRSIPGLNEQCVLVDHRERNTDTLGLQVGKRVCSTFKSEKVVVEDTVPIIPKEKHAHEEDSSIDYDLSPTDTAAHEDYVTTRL
Kind of test: mouse TRPC4 channel inhibitors, dose response, cell-based, HEK293 TRPC4/mu-opioid, Fluo-4 calcium (AID 434942).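 Also: potency of inhibitors blocking the TRPC4 calcium response.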 Type of test: functional.

Test [2] in a line: cells. Type of test: functional, cell-based.
Test [3] in a line: cells. Type of test: functional, cell-based. This is another data set of the same source.
For a further test, the target named is Trypsin (Sus scrofa, UniProt P00761). Kind of test: porcine trypsin inhibitors, dose response, selectivity assay for Rce1 protease inhibitor project, biochemical, quenched peptide fluorescence, cherry-pick (AID 488789).
Test [4] deals with T2, High affinity choline transporter 1 (Homo sapiens, UniProt Q9GZV3).
T2 sequence (Q9GZV3 whole entry): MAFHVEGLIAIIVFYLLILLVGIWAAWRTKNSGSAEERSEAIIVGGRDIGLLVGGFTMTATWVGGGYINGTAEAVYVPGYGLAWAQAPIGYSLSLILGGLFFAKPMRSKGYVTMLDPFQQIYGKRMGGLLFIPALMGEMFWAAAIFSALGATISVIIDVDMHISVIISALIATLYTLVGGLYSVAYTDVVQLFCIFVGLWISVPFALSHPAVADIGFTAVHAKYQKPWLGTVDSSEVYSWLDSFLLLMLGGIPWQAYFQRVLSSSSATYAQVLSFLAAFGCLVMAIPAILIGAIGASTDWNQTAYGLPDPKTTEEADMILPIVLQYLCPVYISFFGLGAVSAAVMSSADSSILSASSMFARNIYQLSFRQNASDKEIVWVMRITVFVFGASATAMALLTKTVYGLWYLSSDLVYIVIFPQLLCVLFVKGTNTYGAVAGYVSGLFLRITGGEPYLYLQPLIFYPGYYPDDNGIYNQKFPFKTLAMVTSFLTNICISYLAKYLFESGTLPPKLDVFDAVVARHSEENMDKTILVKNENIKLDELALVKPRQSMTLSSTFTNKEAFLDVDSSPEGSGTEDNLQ
Kind of test: CHT inhibitors, dose response, cell-based, 5-point CRC, membrane potential dye (AID 504840). The test is classed as functional.

Test [5] is described as follows: Luminescence Cell-Based Dose Response HTS to Identify Activators of Luciferase Translation or Activity in H4 […] Cells. [Related pubchem assays: 1829 (Project Summary), 1814 (Primary HTS)]. Type of test: functional.
The nature of test [6]: Luminescence Cell-Based Dose Confirmation HTS to Identify Activators of 5'UTR Stem-Loop Driven Alpha-Synuclein mRNA Translation in H4 Neuroglioblastoma Cells. [Related pubchem assays: 1829 (Project Summary), 1814 (Primary HTS)]. Type of test: functional.
The target in the next test is T3, Protein skinhead-1 (Caenorhabditis elegans, UniProt P34707).
T3 sequence (P34707 whole entry): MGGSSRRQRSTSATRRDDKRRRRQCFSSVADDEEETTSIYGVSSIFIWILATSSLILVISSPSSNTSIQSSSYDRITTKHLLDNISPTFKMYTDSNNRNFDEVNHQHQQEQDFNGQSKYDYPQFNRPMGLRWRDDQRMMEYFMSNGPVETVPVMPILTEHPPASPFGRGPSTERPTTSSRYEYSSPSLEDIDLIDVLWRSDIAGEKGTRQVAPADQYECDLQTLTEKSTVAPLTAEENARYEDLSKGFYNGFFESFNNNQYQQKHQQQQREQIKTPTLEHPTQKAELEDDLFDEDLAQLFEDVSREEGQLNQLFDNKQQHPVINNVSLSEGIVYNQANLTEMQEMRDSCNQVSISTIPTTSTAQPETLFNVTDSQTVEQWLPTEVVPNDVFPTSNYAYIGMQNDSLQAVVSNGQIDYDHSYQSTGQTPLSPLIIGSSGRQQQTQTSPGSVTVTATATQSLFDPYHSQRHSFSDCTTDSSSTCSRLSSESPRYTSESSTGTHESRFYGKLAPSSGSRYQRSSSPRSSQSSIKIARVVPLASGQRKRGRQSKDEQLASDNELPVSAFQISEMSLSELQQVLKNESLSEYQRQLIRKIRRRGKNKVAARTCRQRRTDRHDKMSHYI
Type of test: functional.

The target in a further test is Nonstructural protein 1 (Influenza A virus, UniProt Q194T2). Type of test: functional, Influenza A virus (A/California/07/2009(H1N1)).
The subject of a further test is H4. Nature of the test: Luminescence Cell-Based Dose Response HTS to Identify Activators of 5'UTR Stem-Loop Driven Prion Protein mRNA Translation in H4 Neuroglioblastoma Cells. [Related pubchem assays: 1829 (Project Summary), 1814 (Primary HTS)]. Type of test: functional. The settings on record: Homo sapiens.
For the next test, the target named is T4, Streptokinase A (Streptococcus pyogenes serotype M1, UniProt P10520).
T4 sequence (P10520 whole entry): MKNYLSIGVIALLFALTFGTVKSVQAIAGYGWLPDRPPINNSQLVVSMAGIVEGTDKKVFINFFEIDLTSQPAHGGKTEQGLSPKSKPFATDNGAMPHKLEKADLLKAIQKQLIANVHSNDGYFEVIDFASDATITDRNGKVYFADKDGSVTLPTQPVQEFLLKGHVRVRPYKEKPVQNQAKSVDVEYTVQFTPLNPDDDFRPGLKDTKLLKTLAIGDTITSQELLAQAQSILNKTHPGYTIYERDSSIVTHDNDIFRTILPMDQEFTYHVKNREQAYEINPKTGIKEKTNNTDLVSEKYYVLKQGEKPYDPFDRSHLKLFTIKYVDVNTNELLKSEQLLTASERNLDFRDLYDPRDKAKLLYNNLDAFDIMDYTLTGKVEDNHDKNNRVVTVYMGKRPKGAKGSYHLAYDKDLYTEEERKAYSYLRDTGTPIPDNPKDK
Kind of test: S. pyogenes streptokinase expression inhibitors, potency, dose response, plasminogen activation absorbance, OD405 (AID 1914).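 Also: secreted streptokinase activity via plasminogen activation per viability signal from cell pellet.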 Type of test: functional, Streptococcus pyogenes M1 GAS.

Test [7] deals with FAD-linked sulfhydryl oxidase ALR (Homo sapiens, UniProt P55789). Nature of the test: inhibitors of human ALR sulfhydryl oxidase, dose response, biochemical, H2O2 detection, luminescence, cherry-pick (AID 493248).
The next test concerns the target Genome polyprotein (dengue virus type 2, UniProt P29990). Nature of the test: Dengue-2 NS5 methyltransferase inhibitors, primary screen, biochemical, confirmation dose response (AID 588689). The test is classed as functional.
The subject of another test is INS1. Kind of test: beta cell apoptosis inhibitors, cytokine rescue, dose response, luminescence, retest (AID 449756).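 Also: cell death triggered by IL-1 beta plus TNF-alpha plus IFN-gamma mixture; protective hits raise ATP signal compared with cytokine alone wells.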 The test is classed as functional, cell-based. The settings on record: Rattus norvegicus.
The nature of test [8]: THP-1 cell cytotoxicity, dose response, cytotoxicity control for non-replicating M. tuberculosis project (AID 489025). Type of test: functional.
Another test deals with Vero. Nature of the test: cells. The test is classed as functional. Particulars: Chlorocebus sabaeus.
Test [9] is described as follows: inhibitors of clade B AD8 Env fusion, dose response, cell-based, cherry-pick (AID 652062).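 Also: luciferase signal from cell-cell fusion driven by HIV-1 clade B AD8 Env; potency is for inhibitors of fusion seen as a drop in luminescence.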 The test is classed as functional.

Chain of FAD-linked sulfhydryl oxidase ALR (P55789 whole entry): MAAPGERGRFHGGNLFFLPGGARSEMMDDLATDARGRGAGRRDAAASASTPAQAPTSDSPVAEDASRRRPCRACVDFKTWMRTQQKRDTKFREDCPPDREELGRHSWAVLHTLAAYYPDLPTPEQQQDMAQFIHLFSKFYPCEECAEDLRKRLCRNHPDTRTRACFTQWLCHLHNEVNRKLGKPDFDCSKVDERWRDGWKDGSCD
Chain of Nonstructural protein 1 (Q194T2 whole entry): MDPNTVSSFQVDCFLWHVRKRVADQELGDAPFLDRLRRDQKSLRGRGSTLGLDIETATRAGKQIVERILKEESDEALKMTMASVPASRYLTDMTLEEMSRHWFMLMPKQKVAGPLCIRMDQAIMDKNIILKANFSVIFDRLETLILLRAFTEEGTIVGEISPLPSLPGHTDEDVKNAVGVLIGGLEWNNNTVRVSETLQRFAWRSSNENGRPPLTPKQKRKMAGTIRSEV
Chain of Trypsin (P00761 whole entry): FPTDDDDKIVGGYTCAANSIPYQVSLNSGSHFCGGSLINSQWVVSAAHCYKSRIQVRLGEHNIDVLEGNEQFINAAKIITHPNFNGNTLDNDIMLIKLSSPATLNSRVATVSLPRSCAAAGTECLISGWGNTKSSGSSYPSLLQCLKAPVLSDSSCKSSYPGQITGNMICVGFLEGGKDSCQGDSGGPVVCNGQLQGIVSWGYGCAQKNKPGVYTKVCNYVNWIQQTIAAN
Chain of Genome polyprotein (P29990 2492-3391 limits assumed): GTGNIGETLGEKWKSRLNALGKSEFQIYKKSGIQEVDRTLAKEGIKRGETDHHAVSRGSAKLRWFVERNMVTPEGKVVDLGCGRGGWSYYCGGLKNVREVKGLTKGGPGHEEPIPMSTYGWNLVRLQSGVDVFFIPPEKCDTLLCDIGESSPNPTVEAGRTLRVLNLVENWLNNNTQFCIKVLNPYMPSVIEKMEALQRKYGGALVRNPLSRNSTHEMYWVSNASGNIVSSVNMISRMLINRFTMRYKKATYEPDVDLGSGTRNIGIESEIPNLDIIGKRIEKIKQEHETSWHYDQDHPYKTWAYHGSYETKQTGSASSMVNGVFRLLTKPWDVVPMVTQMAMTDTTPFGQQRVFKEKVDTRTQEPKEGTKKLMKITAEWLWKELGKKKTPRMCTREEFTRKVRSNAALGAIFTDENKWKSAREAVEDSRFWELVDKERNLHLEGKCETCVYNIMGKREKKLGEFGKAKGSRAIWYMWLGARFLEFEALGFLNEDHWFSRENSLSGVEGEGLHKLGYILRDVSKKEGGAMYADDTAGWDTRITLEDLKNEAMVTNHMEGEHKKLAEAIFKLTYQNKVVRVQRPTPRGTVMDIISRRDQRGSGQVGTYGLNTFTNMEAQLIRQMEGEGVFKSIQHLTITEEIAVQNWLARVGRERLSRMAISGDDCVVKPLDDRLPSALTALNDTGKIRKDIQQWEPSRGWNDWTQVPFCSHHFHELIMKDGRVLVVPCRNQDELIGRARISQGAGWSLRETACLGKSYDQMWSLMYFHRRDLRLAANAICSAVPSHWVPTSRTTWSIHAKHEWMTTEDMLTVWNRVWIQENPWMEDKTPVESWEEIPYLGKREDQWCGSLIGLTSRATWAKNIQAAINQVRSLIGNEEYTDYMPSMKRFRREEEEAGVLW

As for `CCc1c(C(=O)N2CCCN(C)CC2)csc1C`, in test [1], the EC50 (usually the midpoint of the concentration-response curve) is 5.96 µM (active).
Take `Fc1ccccc1N=C(S)Nc1ccc(Br)cc1`: the figures for the EC50 in “cells [2]” and in the test “cells [3]” were 169 µM (active) and > 350 µM (not active), respectively.
For `NC(=O)C1CCCN(Cc2c(C(=O)N3CCc4ccccc4C3)nc3ccc(Cl)cn23)C1` (stereo not given) the same measures were > 350 µM (not active) and > 350 µM (not active).
For `COc1ccccc1N1CCN(C(=O)c2coc(=O)c(Br)c2)CC1`, the AC50 (usually the midpoint of the concentration-response curve, whichever way the signal moves) at Trypsin was 9.18 µM (active).
For the compound `COC(=O)c1ccc(-n2cncn2)c([N+](=O)[O-])c1`, the EC50 in the test “cells [2]” and in the test “cells [3]” was > 350 µM (not active) in each case.
Regarding `C=CCc1ccccc1OCC(CN1CCCCC1)OC(C)=O` (stereo not given), the EC50 in test [1] was 5.31 µM (active).
With `CN1Cc2sc(N)c(C#N)c2CC1(C)C`, in test [4], the IC50 (usually the point on the concentration scale where inhibition reaches its midpoint) was 22.9 µM (active).
Regarding `O=[N+]([O-])c1ccccc1NCCOc1ccccc1`, the figures for the EC50 (in test [5]; in test [6]; with H4) were 24 µM (active), 23.6 µM (active) and 5.5 µM (active), respectively. For the same compound, the IC50 is 96.3 µM (inactive) at Protein skinhead-1 and > 100 µM (active) at Nonstructural protein 1.
`COc1cccc(C2CC(c3cccs3)=NN2C(=O)CSc2nc3c(cnn3-c3ccc(F)cc3)c(=O)[nH]2)c1OC` (stereo not given): the EC50 on Streptokinase A is given as > 50 µM (not active). Further, the AC50 on Trypsin was 3.95 µM (active).
As for `Cc1ccc(C2=NOC(=O)/C2=C\c2ccccc2)cc1`, the EC50 in “cells [2]” and in “cells [3]” was > 350 µM (not active) in each case.
On to `COc1ccc(C(=O)NC(Cc2ccc(OC(=O)c3ccc(OC)cc3)cc2)C(=O)O)cc1` (stereo not given), for which the IC50 in test [4] was 9.12 µM (active).
Turning to `Cc1ccc(N=C(S)N(CCCN(C)C)Cc2cc3cc4c(cc3nc2O)OCO4)c(C)c1`, the EC50 in test [1] is 3.35 µM (active).
As for `CCOc1nc(Nc2ccc(OC)cc2)nc(OCC)n1`, the EC50 in the test “cells [2]” and in the test “cells [3]” was > 350 µM (not active) throughout.
`O=C(NCCCn1ccnc1)c1cn(-c2ccccc2)nc1-c1ccc(F)cc1`: in test [4], the IC50 was 11.5 µM (active).
Turning to `CCN(CC)c1ccc(N=C2C(=O)Nc3ccccc32)cc1`, the AC50 in test [7] is 2.06 µM (active); with INS1, 20.2 µM (active). Also, the figures for the IC50 at Genome polyprotein and at Nonstructural protein 1 were > 100 µM (active) and 14.3 µM (active), respectively.
Take `CN(Cc1ccccc1)C(=O)CSc1nnc(-c2ccco2)n1-c1ccccc1`: in test [1], the EC50 was 1.68 µM (active).
Regarding `Cn1c(-c2cccc([N+](=O)[O-])c2)cnc1NCc1cccc(F)c1`, the CC50 (commonly the concentration at which the toxic effect on the cells reaches its halfway point) in test [8] is > 40 µM (active). For the same compound, the AC50 in test [7] is 1.92 µM (active).
Take `COc1ccc(CN(C)C(=O)c2ccc(NC(=O)CC3SC(N4CCCC4)=NC3=O)cc2)c(OC)c1` (stereo not given): in test [1], the EC50 was 2.37 µM (active).
In the case of `CCOC(=O)c1cnc(SCc2ccc(Cl)c(Cl)c2)nc1N1CC1`, the CC50 in the test with Vero is > 25 µM (active).
As for `CCCNC(=O)C[C@H]1C[C@H]2c3cc(NC(=O)CN(C)C)ccc3O[C@H]2[C@@H](CO)O1`, the AC50 in test [9] was 38.6 µM (active).
With `CC(C)(C)CC(C)(C)NCC(O)COc1ccc2c(c1)CCC2` (stereo not given), the EC50 in test [1] was 3.35 µM (active).

The values are drawn from ChEMBL document CHEMBL1201862, “PubChem BioAssay data set” (2004).
